Data from patent US20260345619A1 (Principia Biopharma Inc., priority 2023, published 2026).

Assay: Pre-bronchodilator FEV1 and percent predicted FEV1 by spirometry, change from baseline
Type: in vivo, human
Conditions: 400 mg TID, Week 12
Procedure: Spirometry is a standard test to measure patients' lung function.
The primary endpoint was the proportion of patients with LOAC. The key secondary endpoint for the study was change in pre-bronchodilator FEV1 from baseline at EOT.
Reversibility is defined as an increase of the absolute FEV1 after administration of bronchodilator and is measured by spirometry as postbronchodilator increase in FEV1 in percent of the prebronchodilator FEV1. After spirometry for measuring prebronchodilator FEV1, participants were to receive 2-4 puffs of albuterol/salbutamol or levalbuterol/levosalbutamol from a primed MDI. The postbronchodilator spirometry may have been repeated several times within 30 minutes after administration of bronchodilator. Alternatively, and only if it was consistent with usual office practice (to be documented), reversibility may have been performed using inhalation of nebulized albuterol/salbutamol or levalbuterol/levosalbutamol.
Secondary endpoints included pre-bronchodilator FEV1 change from baseline at EOT, ACQ-5 score change from baseline, and AQLQ score change from baseline. Other secondary and exploratory endpoints are described in Table 2.

[1] = baseline IgA <2190 mg/L (median)
[2] = baseline IgA ≥2190 mg/L (median)
[3] = baseline IgE <121.85 IU/mL (median)
[4] = baseline IgE ≥121.85 IU/mL (median)
[5] = baseline blood eosinophils <0.15 10^9/L
[6] = baseline blood eosinophils <0.3 10^9/L
[7] = baseline blood eosinophils ≥0.15-<0.3 10^9/L
[8] = baseline blood eosinophils ≥0.3 10^9/L
[9] = baseline percent predicted FEV1 <77% (median)
[10] = baseline percent predicted FEV1 <80%
[11] = baseline percent predicted FEV1 ≥77% (median)
[12] = baseline percent predicted FEV1 ≥80%

CC(C)(C=C(C#N)C(=O)N1CCC[C@@H](n2nc(-c3ccc(Oc4ccccc4)cc3F)c3c(N)ncnc32)C1)N1CCN(C2COC2)CC1 (mixture of isomers) [rilzabrutinib, (R)-2-[3-[4-amino-3-(2-fluoro-4-phenoxy-phenyl)pyrazolo[3,4-d]pyrimidin-1-yl]piperidine-1-carbonyl]-4-methyl-4-[4-(oxetan-3-yl)piperazin-1-yl]pent-2-enenitrile]
-0.21 L: Pre-bronchodilator FEV1 change from baseline, LS Mean [11] | Pre-bronchodilator FEV1 change from baseline, Mean (smoking history Former)
-0.09 L: Pre-bronchodilator FEV1 change from baseline, LS Mean Diff vs. placebo [1] | Pre-bronchodilator FEV1 change from baseline, LS Mean Diff vs. placebo [2] | Pre-bronchodilator FEV1 change from baseline, LS Mean [10] | Pre-bronchodilator FEV1 change from baseline, LS Mean Diff vs. placebo (female) | Pre-bronchodilator FEV1 change from baseline, LS Mean Diff vs. placebo (male)
-0.05 L: Pre-bronchodilator FEV1 change from baseline, LS Mean Diff vs. placebo [5] | Pre-bronchodilator FEV1 change from baseline, LS Mean Diff vs. placebo [6] | Pre-bronchodilator FEV1 change from baseline, LS Mean Diff vs. placebo (baseline weight ≥90 kg) | Pre-bronchodilator FEV1 change from baseline, LS Mean Diff vs. placebo (smoking history Former)
-0.16 L: Pre-bronchodilator FEV1 change from baseline, LS Mean [3] | Pre-bronchodilator FEV1 change from baseline, LS Mean [8] | Pre-bronchodilator FEV1 change from baseline, Mean [8] | Pre-bronchodilator FEV1 change from baseline, Mean (male)
-0.07 L: Pre-bronchodilator FEV1 change from baseline, Mean (baseline FeNO ≥35 ppb) | Pre-bronchodilator FEV1 change from baseline, LS Mean Diff vs. placebo (baseline IgE ≥100 IU/mL) | Pre-bronchodilator FEV1 change from baseline, LS Mean Diff vs. placebo (baseline weight ≥60-<90 kg)
-0.17 L: Pre-bronchodilator FEV1 change from baseline, Mean [2] | Pre-bronchodilator FEV1 change from baseline, Mean [3] | Pre-bronchodilator FEV1 change from baseline, LS Mean [5] | Pre-bronchodilator FEV1 change from baseline, Mean [5] | Pre-bronchodilator FEV1 change from baseline, Mean [12] | Pre-bronchodilator FEV1 change from baseline, Mean (baseline weight ≥90 kg)
-0.11 L: Pre-bronchodilator FEV1 change from baseline, LS Mean Diff vs. placebo (baseline IgE <100 IU/mL) | Pre-bronchodilator FEV1 change from baseline, LS Mean Diff vs. placebo [4] | Pre-bronchodilator FEV1 change from baseline, LS Mean Diff vs. placebo [12] | Pre-bronchodilator FEV1 change from baseline, LS Mean (female)
-0.04 L: Pre-bronchodilator FEV1 change from baseline, LS Mean [7] | Pre-bronchodilator FEV1 change from baseline, LS Mean Diff vs. placebo [7] | Pre-bronchodilator FEV1 change from baseline, LS Mean Diff vs. placebo [9]
-0.19 L: Pre-bronchodilator FEV1 change from baseline, Mean [11]
-0.20 L: Pre-bronchodilator FEV1 change from baseline, Mean (baseline IgE <100 IU/mL) | Pre-bronchodilator FEV1 change from baseline, LS Mean Diff vs. placebo [8] | Pre-bronchodilator FEV1 change from baseline, LS Mean [12]
-0.10 L: Pre-bronchodilator FEV1 change from baseline, LS Mean (baseline IgE <100 IU/mL) | Pre-bronchodilator FEV1 change from baseline, Mean [7] | Pre-bronchodilator FEV1 change from baseline, Mean [9]
-0.33 L: Pre-bronchodilator FEV1 change from baseline, LS Mean [4]
-0.13 L: Pre-bronchodilator FEV1 change from baseline, LS Mean (baseline IgE ≥100 IU/mL) | Pre-bronchodilator FEV1 change from baseline, Mean [4] | Pre-bronchodilator FEV1 change from baseline, LS Mean [6] | Pre-bronchodilator FEV1 change from baseline, Mean [10] | Pre-bronchodilator FEV1 change from baseline, LS Mean Diff vs. placebo [11] | Pre-bronchodilator FEV1 change from baseline, LS Mean (baseline weight ≥60-<90 kg) | Pre-bronchodilator FEV1 change from baseline, LS Mean (smoking history Never)
-0.03 L: Pre-bronchodilator FEV1 change from baseline, LS Mean [9]
-0.08 L: Pre-bronchodilator FEV1 change from baseline, LS Mean Diff vs. placebo [3] | Pre-bronchodilator FEV1 change from baseline, LS Mean Diff vs. placebo [10]
-0.14 L: Pre-bronchodilator FEV1 change from baseline, Mean (female)
-0.15 L: Pre-bronchodilator FEV1 change from baseline, LS Mean [2] | Pre-bronchodilator FEV1 change from baseline, Mean [6] | Pre-bronchodilator FEV1 change from baseline, Mean (baseline weight ≥60-<90 kg) | Pre-bronchodilator FEV1 change from baseline, LS Mean (baseline weight ≥90 kg) | Pre-bronchodilator FEV1 change from baseline, LS Mean (male)
-0.12 L: Pre-bronchodilator FEV1 change from baseline, LS Mean Diff vs. placebo (baseline FeNO ≥35 ppb) | Pre-bronchodilator FEV1 change from baseline, LS Mean [1] | Pre-bronchodilator FEV1 change from baseline, Mean [1] | Pre-bronchodilator FEV1 change from baseline, Mean (baseline IgE ≥100 IU/mL) | Pre-bronchodilator FEV1 change from baseline, LS Mean (smoking history Former)
